Measured values: ChEMBL document CHEMBL1133271, “Synthesis and biological property of carba and 20-deoxo analogues of arenastatin A” (Bioorg Med Chem Lett, 2000)
In brackets after ≈: the same amount, converted by molar mass.

experiment: Cytotoxicity of compound was determined against KB cells; type: functional, cell-based; conditions: Homo sapiens

Structure (SMILES) | IC50
COc1ccc(C[C@H]2NC(=O)/C=C/C[C@@H]([C@H](C)C3OC3c3ccccc3)OC(=O)[C@H](CC(C)C)OCCNC2=O)cc1 (some centres undefined) | 40 ng/mL (≈ 69.1 nM)
COc1ccc(C[C@H]2NC(=O)/C=C/C[C@@H]([C@H](C)C3OC3c3ccccc3)OC(=O)[C@H](CC(C)C)CC(=O)CCNC2=O)cc1 (some centres undefined) | 70 ng/mL (≈ 116 nM)
COc1ccc(C[C@H]2NC(=O)/C=C/C[C@@H]([C@H](C)C3OC3c3ccccc3)OC(=O)[C@H](CC(C)C)NC(=O)CCNC2=O)cc1 (some centres undefined) | 6 ng/mL (≈ 9.91 nM)
COc1ccc(C[C@H]2NC(=O)/C=C/C[C@@H]([C@H](C)[C@H]3O[C@@H]3c3ccccc3)OC(=O)[C@H](CC(C)C)OC(=O)CCNC2=O)cc1 [ARENASTATIN A] | 0.005 ng/mL (≈ 0.00824 nM)
